Assay results taken from US10888556B2, “Method for treating myopia with an nsaid and an anti-muscarinic agent” (KAOHSIUNG CHANG GUNG MEMORIAL HOSPITAL, priority 2013, dated 2021).

Key:
human SSPC = experiment: Col2 and α-SMA expression in human SSPC treated with TGF-β2 (western blot); assay type: cell-based; settings: in the presence of TGF-β2 (10 ng/ml), 1 mM atropine, 5 mM ketorolac, 1 mM diclofenac
Protocol: Different concentrations of TGF-β2 were added into 12-wells of SSPCs. After 24 hrs, the images of SSPC morphology were recorded. The total RNA was extracted for further analysis. A chamber slide culture for the immunofluorescence study was performed under the same condition.
The total protein from the sclera was extract by using RIPA protein extraction buffer. After homogenization of scleral tissue, the sample was centrifuged and the supernatant was collected. The protein concentration of each sample was measured using a BCA™ protein Assay Kit (Bio-Rad). Scleral protein samples were standardized and electrophoresed on 10% SDS-PAGE gel, then transferred to a polyvinylidene fluoride transfer membrane (Immun-Blot PVDF Membrane, BIO-RAD) at 21 V for 1 h. Membranes were blocked for 1 h at room temperature with 5% dry milk in PBS with 0.1% Tween and incubated at 4° C. overnight with primary antibodies. Membranes were washed and incubated with 1:10,000 goat anti-mouse or anti-rabbit IgG antibodies conjugated to horseradish peroxidase (Santa Cruz) for 1 h at room temperature and washed again. Membranes were developed by chemiluminescence with the reagent Lumigen TMA-6 (GE Healthcare UK limited, Buckinghumshire, UK) and images were captured with the LAS-4000 imaging system (Fujifilm, Tokyo, Japan). Protein bands were quantified using ImageJ software.
An in vitro study examining the effect of an anti-muscarinic agent and NSAID on Col2 and α-SMA expressions was performed using human SSPC.

TNF-α = experiment: Expression of inflammation markers in choroids of FDM mice (real-time PCR); assay type: in vivo; settings: FDM eye of mice, one ketorolac eye drop once a day
Protocol: (§1) Total RNA from SSPCs or the choroid tissue in each eye was isolated using Trizol (Invitrogen, Carlsbad, Calif.) accordingly to the manufacture's protocol. qRT-PCR analysis was carried out using the iScript one-step RT-PCR kit with SYBR Green (Bio-Rad, Hercules, USA) on an ABI PRISM 7900 HT sequence detection system (Applied Biosystems, Foster City, USA), according to the manufacturer's instructions. […] Ct values of the control gene were subtracted from those of α-SMA and Col2 to provide a semiquantitative analysis, and fold change relative to no treatment was assessed.
On the day of the experiment (postnatal day [P] 21˜24), C57BL/6J mice were anesthetized by intraperitoneal injection of ketamine (90 mg/kg) and xylazine (10 mg/kg), and the diffuser eye patches were sutured to the skin around the right eye whereas the left eye served as a control. […] The mice were recovered and monitored on a warming pad until they were fully mobile. […]
An in vivo study evaluating the expression of inflammation markers in the choroid was evaluated using FDM Mice. […]

myopic patient = experiment: Treating a myopia subject with NSAID (ketorolac ophthalmic solution); assay type: in vivo, human; settings: one patient, both eyes, after three months of about 0.5% ketorolac, one drop at night
Protocol: The dose of ketorolac was about 0.5% weight ketorolac per unit dose (about 0.05 to 0.5 ml) and the affected eye was given one drop (about 0.05 to 0.5 ml) of ketorolac ophthalmic solution at night.

SSPCs = experiment: α-SMA and Col2 expression in SSPCs treated with TGF-β2, atropine/ketorolac combination; assay type: cell-based, mouse; settings: in the presence of TGF-β2 10 ng/ml, 0.5 mM atropine, 2.5 mM ketorolac, or combination
Protocol: In brief, sclera from the mouse was obtained and was carefully dissected away from limbus and optic disc under a dissection microscope. After retina and choroid tissues were removed, the scleral tissue was cut into small pieces and digested with 1.5 mg/ml collagenase type I (Worthington Biochemical, Lakewood, USA) and 2 mg/ml of dispase (Roche, Basel, Switzerland) in PBS for 1 h at 37° C. to release individual cells. Individual cells were cultured in α-MEM (Invitrogen, Carlsbad, USA), supplemented with 20% lot-selected FBS (Equitech-Bio, Kerrville, USA), glutamine, penicillin/streptomycin and 100 mM 2-mercaptoethanol (Invitrogen) for 8 to 10 days at 5% CO2, 37° C.
Total RNA from SSPCs or the choroid tissue in each eye was isolated using Trizol (Invitrogen, Carlsbad, Calif.) accordingly to the manufacture's protocol. qRT-PCR analysis was carried out using the iScript one-step RT-PCR kit with SYBR Green (Bio-Rad, Hercules, USA) on an ABI PRISM 7900 HT sequence detection system (Applied Biosystems, Foster City, USA), according to the manufacturer's instructions. […] Ct values of the control gene were subtracted from those of α-SMA and Col2 to provide a semiquantitative analysis, and fold change relative to no treatment was assessed. […]

SSPC = experiment: Effect of TGF-β2 treatment on α-SMA and Col2 gene expression in SSPC (quantitative Real Time-PCR); assay type: cell-based, mouse; settings: 0.1 to 10 ng/ml TGF-β2 for 24 hrs, dose dependent
Protocol: The SSPCs were isolated and cultured as previously described by CL Tsai et al. (Identification of multipotent stem/progenitor cells in murine sclera. Invest Ophthalmol Vis Sci 52:5481-5487, 2011). In brief, sclera from the mouse was obtained and was carefully dissected away from limbus and optic disc under a dissection microscope. After retina and choroid tissues were removed, the scleral tissue was cut into small pieces and digested with 1.5 mg/ml collagenase type I (Worthington Biochemical, Lakewood, USA) and 2 mg/ml of dispase (Roche, Basel, Switzerland) in PBS for 1 h at 37° C. to release individual cells. […]
Different concentrations of TGF-β2 were added into 12-wells of SSPCs. After 24 hrs, the images of SSPC morphology were recorded. […]
as §1, with “assessed. […]” for “assessed.”

| Molecule | expression of Col2 (human SSPC) | expression of α-SMA (human SSPC) | level of TNF-α in the choroids (TNF-α) | myopia progression (myopic patient) | expression of Col2 (SSPCs) | expression of α-SMA (SSPCs) | α-SMA gene expression (SSPC; p<0.0001) | Col2 gene expression (SSPC; p=0.011) |
| --- | --- | --- | --- | --- | --- | --- | --- | --- |
| CN1[C@@H]2CC[C@H]1C[C@@H](OC(=O)C(CO)c1ccccc1)C2 (stereo partly drawn) [atropine] | suppressed | suppressed | – | – | – | – | – | – |
| O=C(O)Cc1ccccc1Nc1c(Cl)cccc1Cl [diclofenac] | suppressed | suppressed | – | – | – | – | – | – |
| O=C(c1ccccc1)c1ccc2n1CCC2C(=O)O (stereo not drawn) [ketorolac] | suppressed | suppressed | suppressed | no myopia progression | reduced | reduced | – | – |
| TGF-β2: Transforming growth factor beta 2 (SEQ ID NO:5), ocular chondrogenic protein used to induce α-SMA and Col2 in SSPC (protein, listed as Homo sapiens, Transforming growth factor beta-2 (TGF-beta-2)) MHYCVLSAFLILHLVTVALSLSTCSTLDMDQFMRKRIEAIRGQILSKLKLTSPPEDYPEPEEVPPEVISIYNSTRDLLQEKASRRAAACERERSDEEYYAKEVYKIDMPPFFPSEAIPPTFYRPYFRIVRFDVSAMEKNASNLVKAEFRVFRLQNPKARVPEQRIELYQILKSKDLTSPTQRYIDSKVVKTRAEGEWLSFDVTDAVHEWLHHKDRNLGFKISLHCPCCTFVPSNNYIIPNKSEELEARFAGIDGTSTYTSGDQKTIKSTRKKNSGKTPHLLLMLLPSYRLESQQTNRRKKRALDAAYCFRNVQDNCCLRPLYIDFKRDLGWKWIHEPKGYNANFCAGACPYLWSSDTQHSRVLSLYNTINPEASASPCCVSQDLEPLTILYYIGKTPKIEQLSNMIVKSCKCS | – | – | – | – | – | – | statistically significant increase | statistically significant increase |
